Tests used:
[1] = EEG with 1-back working memory task during methylphenidate dose titration in pediatric ADHD; format: in vivo, patients diagnosed with ADHD
Procedure: Fourteen patients diagnosed with ADHD and clinically classified by a physician specialist in ADHD as MPH-responders (patients who would benefit from taking MPH) completed the protocol (11 males, 3 females; age range 8-18, mean 11.3, standard deviation 3.1). All patients weighed more than 25 kg.
Patients received one week each of placebo (0 mg), 5 mg, 10 mg, 15 mg, and 20 mg daily doses of MPH for a total of five weeks, according to a fully counterbalanced, placebo-controlled, double-blind design. In this example EEG data was obtained concurrent with selected attention demanding tasks. […] Accordingly, an EEG computer-based examination was obtained simultaneously with the subject taking a test battery of attention demanding tasks, for example a set of psychometric tasks. Such data was obtained once a week, 1-3 hours post-ingestion of the prescribed dose for that week. Examinations were administered approximately the same time of day and on the same day of the week during the dose titration period. The protocol used in this study included a low-load simple reaction time task (SRT) task and a higher-load 1-back working memory (WM) task in sessions lasting about half an hour.
Analysis focused on the 1-back working memory task whose performance and EEG signals were most affected by MPH A divergence-based multivariate feature selection and pattern classification algorithm (for convenience called the neuroworkload meter—Gevins and Smith, 2003; Smith, Gevins, et al, 2001) was employed to choose and weight an optimal subset of features to characterize the MPH response.
A set of candidate 1-back WM performance and attention-sensitive EEG features most affected by varying MPH doses was selected based on the prior statistical analyses of the average of the MPH doses followed by visual inspection of the grand averaged EEG power spectra and evoked potential data. Feature subsets were limited to a maximum of four variables because of the small number of subjects in the experiment. […]

[2] = Post-drug EEG and subjective scale measures (LDA neurocognitive drug response score); format: in vivo, healthy adult volunteers; settings: post-drug vs non-drug baseline
Excerpt: Using the data and methods described in Example 1, we determined how a combination of post-drug EEG and the subject's subjective scale measures quantifies the response to carbamazepine. Accordingly, a stepwise linear discriminant analysis (LDA) was used to generate a neurocognitive drug response score for each subject, reflecting the magnitude of neurocognitive response to the drug as compared with the non-drug baseline. The sensitivity and specificity in detecting the effect of the drug were both 100%. Three variables were used in the LDA, of which two were EEG and one was a subjective scale measure. The EEG variables were occipito-parietal 2-10 Hz EEG power in all tasks (relative weight 0.6) which increased consequent to CBZ, peak alpha frequency in all tasks (relative weight 0.3) which decreased consequent to CBZ, and self-reported fatigue rating on the Profile of Mood Scale (POMS, Jacobson et al., 1978) (relative weight 0.3) which increased consequent to CBZ.

[3] = Neuropsychological and neurophysiological testing of AEDs, double-blind randomized two period crossover; format: in vivo, healthy adult volunteers
Excerpt: The purpose of the underlying study was to evaluate the neuropsychological and neurophysiological effects of the AED carbamazepine (CBZ), and the AED levitiracetam (LEV) in healthy subjects, employing a double-blind, two period crossover design (Meador et al., 2007). In accordance with the present invention, data at non-drug baseline sessions predicted which subjects would have the most negative effects of CBZ.
A total of 28 healthy adult volunteers without history of neurological or psychiatric diseases completed the protocol (17 women; 11 men; mean age=33 years, range=18-51). All subjects remained free of centrally active prescription medications throughout the study.
The study employed a double-blind, randomized, two period crossover design. Subjects were screened and tested at the non-drug baseline.
Subsequently, they were randomly assigned to receive either AED. Each AED was administered over eight weeks, which included a titration period and a one month maintenance period. Each AED treatment period was followed by a four day taper and a washout period for the remainder of the four weeks. Then, subjects were treated with the other AED for eight weeks followed by a final four week washout period.
CBZ was given at 200 mg/day for the first week, 200 mg/day bid for the 2nd week, then adjusted to midrange anticonvulsant blood levels (ABLs) at tid dosages. LEV was begun at 500 mg/day for two weeks, then increased to 500 mg bid for two weeks, then increased to 1000 mg bid.
Subjects underwent neuropsychological and neurophysiological testing on six occasions (i.e., two AED conditions and four non-drug conditions) over 25 weeks. Test sessions occurred at week one before drug administration, at week nine after four weeks of titration and maintenance on the first drug for four weeks, at week 21 after 4 weeks of wash out, 4 weeks of titration on drug 2 and 4 weeks maintenance on drug 2, and at week 25 after 4 weeks of washout.
Patient data was obtained in accordance with procedures set forth in U.S. Pat. Nos. 6,947,790; 6,434,419 and 5,295,491; in this embodiment EEG data was obtained simultaneously with the subject taking a test battery of attention demanding tasks, for example a set of psychometric tasks.
Data was obtained from a verbal episodic memory task consisting of a word presentation phase, during which subjects had to indicate whether each word contained 1 or 2 syllables, and a delayed recognition phase in which subjects had to indicate whether each word had been presented earlier. A working memory task was presented in between these two phases, and acted as a distracter task. During the first repetition of this sequence, the working memory task was a low-load 1-back task, and during the second repetition, the working memory task was a high-load 2-back task. A number of standard neuropsychological and subjective rating scales were also administered. Test sessions lasted about an hour.

[4] = Symbol Digits Modality Test (SDMT) after taking CBZ; format: in vivo, healthy adult volunteers
Excerpt: The SDMT is a standard neuropsychological test of “executive function” and includes complex scanning, visual tracking, and agility components. These non-drug baseline values of task performance, EEG, and evoked potential variables that were most sensitive to the effects of CBZ were used as candidate independent predictor variables. Stepwise multiple linear regression analysis was used to identify which of these candidate independent predictor variables at baseline best predicted the change in the SDMT after taking CBZ.

[5] = in vivo; cited from earlier work

SMILES: COC(=O)C(c1ccccc1)C1CCCCN1 (stereo not drawn) [MPH, methylphenidate]
- dose-response relationship across patients ([1]; 0, 5, 10, 15, 20 mg daily, one week each): did not reveal any systematic dose-response relationship
- effect size (Cohen's d) of four-variable equation score ([1]; 20 mg vs placebo): 2.12
- effect size (Cohen's d), dose with the highest score vs placebo ([1]; two-dose test analysis): 3.43

SMILES: NC(=O)N1c2ccccc2C=Cc2ccccc21 [CBZ, carbamazepine]
- occipito-parietal 2-10 Hz EEG power in all tasks [2]: increased
- peak alpha frequency in all tasks [2]: decreased
- self-reported fatigue rating on the Profile of Mood Scale (POMS) [2]: increased
- variables worse compared to the non-drug average ([3]; CBZ 36 of 55, LEV 4 of 33): 65%
- low frequency (<10 Hz) EEG power ([3]; after one month maintenance): increase
- subjects with a decline in SDMT score of at least 15% ([4]; 28 subjects): Six of the 28 subjects
- average decline in SDMT ([4]; actual, across the 28 subjects, p<0.0003): 6.7%

SMILES: CC[C@@H](C(N)=O)N1CCCC1=O [LEV, levetiracetam]
- untoward neuropsychological and neurophysiological effects ([3]; in vivo): fewer untoward neuropsychological and neurophysiological effects than did CBZ
- variables with significant differences between the AEDs, all in favor of LEV ([3]; in vivo): 42%
- variables worse compared to the non-drug average ([3]; in vivo): 12%

SMILES: CC1(C)O[C@@H]2[C@@H](CO[C@@]3(COS(N)(=O)=O)OC(C)(C)O[C@@H]23)O1 [topiramate]
- 2-6 Hz EEG power [5]: increased
- working memory task performance [5]: adversely affected
